From patent publication US6656956B2, “Benzimidazole derivatives, processes for preparing them and their use as pharmaceutical compositions” (Boehringer Ingelheim Pharma KG, priority 2001, dated 2003)
Where a name gives a salt, the structure may show the parent alone.

Target: T1, rh beta tryptase (Homo sapiens, UniProt Q15661)
T1 construct: purchased Promega
Assay: tryptase inhibition in vitro test (cleavage of N-p-tosyl-Gly-Pro-Lys-para-nitroaniline, p-nitroaniline measured at 405 nm)
Type: biochemical
Details: rh beta tryptase 0.91 U/ml, substrate 0.6 mM, Tris HCl buffer with calcium and heparin, pH 7.4, 37° C., 5 minutes incubation; read-out: Tryptase-inhibiting activity
Method in brief: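 Chromogenic assay in 100 mM Tris HCl pH 7.4 with 5 mM calcium and […], 0.91 U/ml enzyme, 0.6 mM substrate. Compound preincubated 5 min, then p-nitroaniline at 405 nm after 5 min, 37° C. Screening at 10 μM as % inhibition; IC50 determined when inhibition exceeded 70%.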

T1 sequence (Q15661 31-275): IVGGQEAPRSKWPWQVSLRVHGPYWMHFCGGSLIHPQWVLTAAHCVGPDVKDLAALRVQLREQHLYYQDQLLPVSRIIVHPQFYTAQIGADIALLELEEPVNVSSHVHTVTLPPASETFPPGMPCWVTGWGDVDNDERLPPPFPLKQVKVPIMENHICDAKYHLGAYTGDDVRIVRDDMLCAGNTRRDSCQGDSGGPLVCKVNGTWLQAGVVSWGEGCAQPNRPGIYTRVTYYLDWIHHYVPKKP

IC50 [nM]	Molecule
31 to 1000	N-{2-[2-(4-Amidinophenyl)-ethyl]-1-methyl-benzimidazol-5- yl}-N-[naphth-1-ylmethyl]-N′-[4-(2-naphthylmethylamino)]- urea, hydrochloride [Example 80]
31 to 1000	Cn1c(CCc2ccc(C(=N)N)cc2)nc2cc(N(Cc3cccc4ccccc34)C(=O)Nc3cccc(Cl)c3)ccc21 [Example 74, N-{2-[2-(4-Amidinophenyl)-ethyl]-1-methyl-benzimidazol-5-yl}-N-[naphth-1-ylmethyl]-N′-(3-chloro)-phenyl, hydrochloride]
